According to patent US20160166604A1, “Thiol-Sensitive Positive Inotropes” (priority 2005, published 2016):
Values joined by “and” are separate entries in the source; they are usually repeats but may differ in a detail not shown here. Equal values may be shown once. “Also recorded” adds a separate entry of the source.

What was measured:
RyR2 = target: T1, RyR2 (Mus musculus, UniProt E9Q401); test: RyR2 single channel recordings in planar lipid bilayers; assay type: biochemical; conditions: for open probability of the channel (Po): control 0.16±0.03
T1 construct: endogenous in cells; host or cells: freshly isolated adult mouse cardiac myocytes
Protocol: Recording of single RyR2 in lipid bilayers was performed as previously described. Jiang, M. T. et al., Circ. Res., 91, 1015-1022 (2002). Briefly, a phospholipid bilayer of PE:PS (1:1 dissolved in n-decane to 20 mg/ml) was formed across an aperture of ˜300 μm diameter in a delrin cup. The cis chamber (900 μl) was the voltage control side connected to the head stage of a 200 A Axopatch amplifier, while the trans chamber (800 μl) was held at virtual ground. Both chambers were initially filled with 50 mM cesium methanesulfonate and 10 mM Tris/Hepes pH 7.2. After bilayer formation, cesium methanesulfonate was raised to 300 mM in the cis side and 100 to 200 μg of mouse cardiac SR vesicles was added. After detection of channel openings, Cs^+ in the trans chamber was raised to 300 mM to collapse the chemical gradient. Single channel data were collected at steady voltages (−30 mV) for 2-5 min. Channel activity was recorded with a 16-bit VCR-based acquisition and storage system at a 10 kHz sampling rate. Signals were analyzed after filtering with an 8-pole Bessel filter at a sampling frequency of 1.5-2 kHz. Data acquisition and analysis were done with Axon Instruments software and hardware (pClamp v8.0, Digidata 200 AD/DA interface).
To further test whether HNO directly interacted with RyR2 proteins to increase open probability, purified reconstituted RyR2 were expressed in planar lipid bilayers and steady-state activity recorded with or without AS. The cis (cytosolic) solution contained 10 μM activating Ca^2+ and recordings were made at positive 30 mV holding potential. […] The probability of the channel being open (Po) increased from an average 0.16±0.03 without AS to 0.46±0.07 at 0.3 mM AS added to the cytoplasmic side of the channel (n=4). This was reversible upon addition of 2 mM DTT (0.11±0.04). These findings support direct HNO-RyR2 interaction likely via a reversible reaction with thiol groups in the protein.

isolated mouse myocytes = test: SR Ca2+ stores by rapid caffeine infusion in mouse myocytes; assay type: cell-based; conditions: 1 mM AS; caffeine alone 223±34; n=8
Protocol: Nitroxyl (HNO) confers positive inotropy in vivo. Here, it was determined whether HNO action stems from a direct influence on sarcoplasmic reticulum (SR) Ca^2+ cycling, involving enhanced Ca^2+ release from ryanodine receptors (RyR2). Myocytes were isolated from ST mice, suspended in Tyrode's solution (1 mM Ca^2+) and field stimulated (0.5 Hz, 25° C.). Sarcomere shortening (SS) was assessed by real-time image analysis, Ca^2+ transients from Indo-1 fluorescence. RyR2 activity was determined by optical imaging of Ca^2+ release from single Ca^2+ release units. The HNO donor Angeli's Salt (AS) induced dose-dependent inotropy (SS: 73±31% at 0.5 mM; 131±31% at 1 mM; all n=15, p<0.05 vs. base; <0.1 mM: no effect). In contrast, the NO donor DEA/NO reduced SS by 55-65% at 5-50 μM (both p<0.05 vs. base), with no effect at higher doses. […] However, co-infusion with the thiol-donating compound N-acetyl-L-cysteine (NAC, 3 mM) abolished AS inotropy.

[1] = test system: isolated mouse ventricular myocytes; test: Sarcomere shortening in field-stimulated isolated mouse ventricular myocytes; assay type: cell-based
Protocol: Wild type 2-4 month old mice were anesthetized with intraperitoneal pentobarbital sodium (100 mg/kg/ip). Hearts were perfused as previously described. Mongillo, M. et al., Circ. Res., 98, 226-234 (2006). To assess for sarcomere shortening, cells were imaged using field stimulation (Warner instruments) in an inverted fluorescence microscope (Diaphot 200; Nikon, Inc). Sarcomere length was measured by real-time Fourier transform (IonOptix MyoCam, CCCCD100M) and cell twitch amplitude is expressed as a percentage of resting cell length. Twitch kinetics was quantified by measuring the time to peak shortening and the time from peak shortening to 50% relaxation. For whole calcium transient measurements, myocytes were loaded with the Ca^2+ indicator fluo-4/AM (Molecular Probes, 20 μM for 30 min) and Ca^2+ transients were measured under field-stimulation at 0.5 Hz in perfusion solution by confocal laser scanning microscope (LSM510, Carl Zeiss). Digital image analysis used customer-designed programs coded in Interactive Data Language (IDL).
Nitroxyl (HNO) confers positive inotropy in vivo. Here, it was determined whether HNO action stems from a direct influence on sarcoplasmic reticulum (SR) Ca^2+ cycling, involving enhanced Ca^2+ release from ryanodine receptors (RyR2). Myocytes were isolated from ST mice, suspended in Tyrode's solution (1 mM Ca^2+) and field stimulated (0.5 Hz, 25° C.). Sarcomere shortening (SS) was assessed by real-time image analysis, Ca^2+ transients from Indo-1 fluorescence. RyR2 activity was determined by optical imaging of Ca^2+ release from single Ca^2+ release units.

[2] = test system: cardiac myocytes from WT and Gαq overexpressing FVB/N mice; test: Sarcomere shortening in cardiac myocytes from WT and Gαq overexpressing mice; assay type: cell-based, mouse; conditions: for increase in sarcomere shortening: Gαq myocytes
Protocol: Cardiac myocytes were isolated from WT and Gαq overexpressing 2-6 month old FVB/N mice, suspended in Tyrode's solution (1 mM calcium) and field stimulated at 0.5 Hz at 23° C. Sarcomere shortening (SS) was assessed by real-time image analysis; data are presented at steady-state (10 minutes drug infusion).

T1 sequence (E9Q401 whole entry): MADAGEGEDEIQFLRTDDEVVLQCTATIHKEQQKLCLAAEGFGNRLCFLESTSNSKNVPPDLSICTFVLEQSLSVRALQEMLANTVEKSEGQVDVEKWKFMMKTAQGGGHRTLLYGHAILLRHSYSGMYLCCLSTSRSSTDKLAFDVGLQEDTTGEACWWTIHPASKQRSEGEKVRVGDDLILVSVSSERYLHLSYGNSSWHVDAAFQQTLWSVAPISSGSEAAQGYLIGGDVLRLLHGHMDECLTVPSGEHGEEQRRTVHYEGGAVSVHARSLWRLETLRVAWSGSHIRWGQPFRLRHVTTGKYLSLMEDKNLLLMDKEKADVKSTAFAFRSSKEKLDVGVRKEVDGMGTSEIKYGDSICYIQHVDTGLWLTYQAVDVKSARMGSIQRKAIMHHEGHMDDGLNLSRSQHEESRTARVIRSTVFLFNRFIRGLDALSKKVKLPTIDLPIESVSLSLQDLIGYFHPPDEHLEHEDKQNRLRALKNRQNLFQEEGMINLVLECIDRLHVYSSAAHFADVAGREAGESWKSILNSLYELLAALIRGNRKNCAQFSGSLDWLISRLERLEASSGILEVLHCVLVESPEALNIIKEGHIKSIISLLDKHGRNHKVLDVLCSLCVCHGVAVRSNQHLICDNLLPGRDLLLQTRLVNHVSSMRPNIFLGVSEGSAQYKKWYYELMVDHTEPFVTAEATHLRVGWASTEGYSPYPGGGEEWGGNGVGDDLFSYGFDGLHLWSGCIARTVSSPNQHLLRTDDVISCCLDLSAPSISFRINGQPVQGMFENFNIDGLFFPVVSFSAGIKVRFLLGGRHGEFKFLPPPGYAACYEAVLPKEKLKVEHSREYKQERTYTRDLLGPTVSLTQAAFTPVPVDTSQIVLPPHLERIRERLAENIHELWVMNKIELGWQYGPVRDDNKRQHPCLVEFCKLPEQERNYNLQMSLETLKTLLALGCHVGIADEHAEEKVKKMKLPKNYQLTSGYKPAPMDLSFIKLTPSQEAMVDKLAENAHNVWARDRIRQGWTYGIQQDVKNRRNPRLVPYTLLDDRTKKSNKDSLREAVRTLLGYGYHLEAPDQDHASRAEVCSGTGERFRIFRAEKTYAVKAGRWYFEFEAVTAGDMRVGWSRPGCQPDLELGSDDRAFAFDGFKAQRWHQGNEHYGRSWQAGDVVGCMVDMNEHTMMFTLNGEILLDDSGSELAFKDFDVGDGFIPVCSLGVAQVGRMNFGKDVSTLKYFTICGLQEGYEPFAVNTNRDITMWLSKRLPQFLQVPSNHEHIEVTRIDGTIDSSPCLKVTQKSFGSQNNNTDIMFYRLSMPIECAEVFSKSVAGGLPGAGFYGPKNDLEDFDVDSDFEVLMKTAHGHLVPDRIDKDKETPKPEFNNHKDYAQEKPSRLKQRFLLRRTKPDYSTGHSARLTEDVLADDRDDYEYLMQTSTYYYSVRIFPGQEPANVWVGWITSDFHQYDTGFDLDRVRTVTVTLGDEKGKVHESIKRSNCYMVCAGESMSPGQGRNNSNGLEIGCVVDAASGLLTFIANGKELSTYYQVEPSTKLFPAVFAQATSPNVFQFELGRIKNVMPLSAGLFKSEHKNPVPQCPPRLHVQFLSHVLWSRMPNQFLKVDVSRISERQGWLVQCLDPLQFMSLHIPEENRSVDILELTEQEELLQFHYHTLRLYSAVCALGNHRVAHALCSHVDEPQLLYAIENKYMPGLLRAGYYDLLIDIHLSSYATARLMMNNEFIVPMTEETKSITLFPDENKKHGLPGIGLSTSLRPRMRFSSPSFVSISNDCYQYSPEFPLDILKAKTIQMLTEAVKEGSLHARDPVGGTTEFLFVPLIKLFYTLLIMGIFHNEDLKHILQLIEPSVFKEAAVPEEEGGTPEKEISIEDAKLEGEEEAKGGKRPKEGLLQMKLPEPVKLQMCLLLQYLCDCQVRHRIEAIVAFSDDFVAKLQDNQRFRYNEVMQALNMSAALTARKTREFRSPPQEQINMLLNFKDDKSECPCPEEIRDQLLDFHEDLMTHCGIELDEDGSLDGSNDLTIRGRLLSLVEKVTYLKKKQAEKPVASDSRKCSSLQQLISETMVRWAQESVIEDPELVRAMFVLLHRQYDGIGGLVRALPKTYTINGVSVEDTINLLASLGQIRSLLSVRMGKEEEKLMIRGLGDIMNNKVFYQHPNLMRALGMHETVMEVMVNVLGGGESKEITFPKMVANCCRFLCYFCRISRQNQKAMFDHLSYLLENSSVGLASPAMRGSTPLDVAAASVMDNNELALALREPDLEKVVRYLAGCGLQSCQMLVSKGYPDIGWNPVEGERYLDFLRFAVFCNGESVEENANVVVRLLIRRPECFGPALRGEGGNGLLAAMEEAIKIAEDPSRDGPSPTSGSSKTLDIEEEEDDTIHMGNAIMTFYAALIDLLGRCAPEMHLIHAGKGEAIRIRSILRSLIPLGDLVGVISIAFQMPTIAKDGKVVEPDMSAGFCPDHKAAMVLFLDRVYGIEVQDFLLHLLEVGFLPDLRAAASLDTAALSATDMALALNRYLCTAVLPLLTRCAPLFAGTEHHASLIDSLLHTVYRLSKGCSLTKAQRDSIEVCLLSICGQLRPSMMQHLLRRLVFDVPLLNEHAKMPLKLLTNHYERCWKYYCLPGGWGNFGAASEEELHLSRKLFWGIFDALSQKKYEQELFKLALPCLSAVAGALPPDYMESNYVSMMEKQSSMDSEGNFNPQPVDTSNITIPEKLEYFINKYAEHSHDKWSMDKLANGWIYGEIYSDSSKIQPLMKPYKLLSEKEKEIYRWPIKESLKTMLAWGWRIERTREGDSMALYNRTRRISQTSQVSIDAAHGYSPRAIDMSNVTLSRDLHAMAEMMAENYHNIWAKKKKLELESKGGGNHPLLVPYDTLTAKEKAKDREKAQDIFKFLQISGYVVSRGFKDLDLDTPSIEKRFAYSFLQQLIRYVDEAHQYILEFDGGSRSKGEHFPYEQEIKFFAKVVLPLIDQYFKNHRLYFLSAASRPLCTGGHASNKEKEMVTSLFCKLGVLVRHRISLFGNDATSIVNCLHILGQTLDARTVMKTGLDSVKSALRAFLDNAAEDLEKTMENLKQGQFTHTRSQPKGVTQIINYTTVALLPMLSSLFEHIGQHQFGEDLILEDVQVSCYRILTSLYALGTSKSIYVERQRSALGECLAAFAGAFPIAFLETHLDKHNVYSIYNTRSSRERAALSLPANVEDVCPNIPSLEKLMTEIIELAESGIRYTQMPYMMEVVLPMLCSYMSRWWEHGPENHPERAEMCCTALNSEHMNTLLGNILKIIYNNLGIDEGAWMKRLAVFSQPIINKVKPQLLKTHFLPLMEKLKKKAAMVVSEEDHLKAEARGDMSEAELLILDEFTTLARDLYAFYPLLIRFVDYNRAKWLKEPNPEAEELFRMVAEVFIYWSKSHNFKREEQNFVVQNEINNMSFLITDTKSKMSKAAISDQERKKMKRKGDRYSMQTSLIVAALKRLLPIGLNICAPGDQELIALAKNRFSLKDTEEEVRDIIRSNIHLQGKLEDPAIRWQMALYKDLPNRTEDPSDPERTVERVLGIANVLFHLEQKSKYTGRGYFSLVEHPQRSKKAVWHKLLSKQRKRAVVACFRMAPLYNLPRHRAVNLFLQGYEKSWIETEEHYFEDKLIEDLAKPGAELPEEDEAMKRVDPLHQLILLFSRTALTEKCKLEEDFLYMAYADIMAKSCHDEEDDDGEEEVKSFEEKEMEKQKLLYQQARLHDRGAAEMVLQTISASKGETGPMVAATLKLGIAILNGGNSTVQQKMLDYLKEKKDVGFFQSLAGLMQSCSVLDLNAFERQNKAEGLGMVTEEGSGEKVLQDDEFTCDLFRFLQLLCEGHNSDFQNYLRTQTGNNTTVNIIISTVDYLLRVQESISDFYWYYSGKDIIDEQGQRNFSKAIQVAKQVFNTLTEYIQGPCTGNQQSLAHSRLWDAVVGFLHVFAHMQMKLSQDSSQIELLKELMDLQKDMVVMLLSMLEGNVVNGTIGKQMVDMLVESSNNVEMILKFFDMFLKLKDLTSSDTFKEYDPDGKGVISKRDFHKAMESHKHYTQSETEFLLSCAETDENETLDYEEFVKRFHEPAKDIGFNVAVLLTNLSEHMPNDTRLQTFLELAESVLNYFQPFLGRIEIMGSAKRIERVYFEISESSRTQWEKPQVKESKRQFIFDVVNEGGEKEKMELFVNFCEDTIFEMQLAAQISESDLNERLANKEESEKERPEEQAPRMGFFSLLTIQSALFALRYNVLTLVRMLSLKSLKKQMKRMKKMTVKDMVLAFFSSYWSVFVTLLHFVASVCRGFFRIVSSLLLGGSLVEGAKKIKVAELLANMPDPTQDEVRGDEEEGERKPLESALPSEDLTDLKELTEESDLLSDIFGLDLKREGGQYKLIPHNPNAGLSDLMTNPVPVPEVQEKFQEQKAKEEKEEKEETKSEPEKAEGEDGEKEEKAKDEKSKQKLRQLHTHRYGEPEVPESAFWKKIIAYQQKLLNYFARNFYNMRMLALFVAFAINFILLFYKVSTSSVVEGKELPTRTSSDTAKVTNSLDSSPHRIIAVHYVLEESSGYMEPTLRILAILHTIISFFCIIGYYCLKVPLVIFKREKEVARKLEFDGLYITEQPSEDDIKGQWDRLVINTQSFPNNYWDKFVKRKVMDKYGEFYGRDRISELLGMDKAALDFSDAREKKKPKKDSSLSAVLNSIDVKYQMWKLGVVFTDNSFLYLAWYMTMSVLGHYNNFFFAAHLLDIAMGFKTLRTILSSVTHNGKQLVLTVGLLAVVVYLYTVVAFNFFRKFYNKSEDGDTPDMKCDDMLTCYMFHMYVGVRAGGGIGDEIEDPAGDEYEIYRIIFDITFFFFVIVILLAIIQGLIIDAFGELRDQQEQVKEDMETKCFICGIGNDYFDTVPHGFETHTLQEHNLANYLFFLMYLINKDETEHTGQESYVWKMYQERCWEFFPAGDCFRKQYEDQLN

SMILES: [Na+].[Na+].[O-][N+]([O-])=NO [AS, Angeli's salt]
- open probability of the channel (Po) (RyR2; 0.1 mM AS, cis side): 0.25±0.05
- open probability of the channel (Po) (RyR2; 0.3 mM AS, cytoplasmic side): 0.46±0.07
- open probability of the channel (Po) (RyR2; 1.0 mM AS, cis side): 0.69±0.11
- Po of AS-activated channels after DTT (RyR2; 2 mM DTT added to cis side): 0.11±0.04
- unitary channel conductance (RyR2; AS 0.1 to 1 mM): without altering
- SR Ca2+ stores (% [Ca2+]i on caffeine) (isolated mouse myocytes): 138±17%
- myocyte relaxation hastened (time to 50% re-lengthening) ([1]; AS): 10-20%
- time until response plateaued ([1]; AS): 10 to 15 min
- increase in sarcomere shortening ([1]; AS 0.5 mM): 73±31% and ~100%
- contractility response (sarcomere shortening) after GSH pre-treatment ([1]; AS 0.5 mM after GSH ethyl ester 4 mM for 3 hrs): 57±19%
- increase in sarcomere shortening ([1]; AS 1 mM): 131±31% and 117±25% and ~100%
- increase in sarcomere shortening with guanylate cyclase inhibition ([1]; AS 1 mM with ODQ, n=15, p=NS vs. AS 1 mM): 157±40%
- AS concentration above which myocyte contractility rose ([1]; AS 10^-6 to 10^-3 M, C57/BL6 myocytes): > 100 µM
- effect on sarcomere shortening ([1]; AS <0.1 mM): no effect
- effect of co-application on ISO (2.5 nM)-stimulated sarcomere shortening ([1]; DEA/NO 0.25 mM, AS 0.5 mM): doubled
- sarcomere shortening response after GSH pre-incubation ([1]; GSH 4 mM for 3 hrs, compared with 1 mM AS alone, n=14): 58±19%
- AS inotropy on co-infusion of N-acetyl-L-cysteine ([1]; NAC 3 mM): abolished
- effect of PKG inhibitor Rp-8Br-cGMPs on the agent's inotropy ([1]; Rp-8Br-cGMPs 10 μM pre-treatment): did not alter; also recorded: no impact
- effect of PKA inhibitor Rp-CPT-cAMPs on the agent's enhancement of sarcomere shortening ([1]; Rp-CPT-cAMPs 100 μM pre-treatment): did not alter
- reversibility of response after discontinuation ([1]; at ≦500 μM, after a similar time period): fully reversible
- AS inotropy on co-treatment with thapsigargin ([1]; thapsigargin 3 μM, n=16): 52±14%
- positive inotropic effect in Gαq myocytes compared with WT cells ([2]; AS infusion): not significantly different
- increase in sarcomere shortening ([2]; AS 250 μM): 22±11%
- increase in sarcomere shortening ([2]; AS 500 μM): 40±11%
